The results in this text go back to paper PMC11045757, “Group 3 medulloblastoma transcriptional networks collapse under domain specific EP300/CBP inhibition” (Nature Communications, 2024).

Each structure is given as a SMILES string. “And” between values parts separate entries of the source, which are not always exact repeats. Equal entries are not always repeated.

The target in assay [1] is T1, BRPF3 (Homo sapiens, UniProt Q9ULD4).
T1 construct: purchased Eurofins DiscoverX (BROMOscan)
Nature of the assay: BromoScan profiling (DiscoverX). It counts as binding. As to conditions: read-out: Percent Control BRPF3.

The target in assay [2] is T2, BRD2(1) (Homo sapiens, UniProt P25440).
T2 construct: BRD2(1); purchased Eurofins DiscoverX (BROMOscan)
Nature of the assay: BromoScan profiling (DiscoverX). It counts as binding. As to conditions: read-out: Percent Control BRD2(1).

Assay [3] concerns the target T3, BRD2(2) (Homo sapiens, UniProt P25440).
T3 construct: BRD2(2); purchased Eurofins DiscoverX (BROMOscan)
The assay can be described thus: BromoScan profiling (DiscoverX). It counts as binding. As to conditions: read-out: Percent Control BRD2(2).

Assay [4] addresses T4, PBRM1(2) (Homo sapiens, UniProt Q86U86).
T4 construct: PBRM1(2); purchased Eurofins DiscoverX (BROMOscan)
Nature of the assay: BromoScan profiling (DiscoverX). The format is binding. The conditions noted are these: read-out: Percent Control PBRM1(2).

Assay [5] concerns the target T5, PCAF (Homo sapiens, UniProt Q92831).
T5 construct: purchased Eurofins DiscoverX (BROMOscan)
The assay can be described thus: BromoScan profiling (DiscoverX). As to conditions: read-out: Percent Control PCAF. It counts as binding.

The target of assay [6] is T6, BRD4-BD1 (BRD4-1) (Homo sapiens, UniProt O60885).
T6 construct: BRD4-BD1 (residues 44-168); 6xHis (cleaved yes); host or cells: E. coli BL21 (DE3) RIL
The assay can be described thus: Isothermal titration calorimetry (ITC). It counts as binding. As to conditions: single ITC experiment, data fit ± SEM. As to the method: At OD600 of 0.6, the culture was cooled down to 18 °C and induced with 0.1 mM IPTG. After 18 h growth, the culture was harvested by centrifugation at 6000 × g for 25 min and stored at -80 °C. Harvested cell pellets were re-suspended in 50 mM Na/K phosphate buffer (pH 7.4) containing 100 mM NaCl, 40 mM imidazole, 0.01% w/v lysozyme and 0.01% v/v Triton X-100 at 4 °C for 1 h, subjected to sonication and the lysate was clarified by centrifugation (30,000 × g for 45 min at 4 °C). Proteins were purified by FPLC at 4 °C using columns and chromatography materials from GE Healthcare. […] Proteins were purified to homogeneity by size exclusion chromatography using Superdex 75 equilibrated with elution buffer (50 mM HEPES pH 7.5, 100 mM NaCl, 2 mM DTT). All BRDs eluted as monomeric protein and were of crystallization grade quality (>95% purity as judged by SDS-PAGE). Pool fractions were combined, concentrated to 10–12 mg/ml, and aliquots were flash-frozen in liquid N2 and stored at −80 °C.
All experiments were conducted using an PEAQ-ITC calorimeter (Malvern Scientific). BRDs were buffer exchanged using PD10 columns (GE life sciences) into 50 mM HEPES pH7.5 and 100 mM NaCl (ITC buffer) before the experiment and concentrated to ∼10 mg/mL. Experiments were carried out in ITC buffer while stirring at 750 rpm through reverse titration. The microsyringe (40 μL load volume) was loaded with the protein sample (250–600 μM protein in ITC buffer) and inserted into the calorimetric cell (0.2 mL cell volume) consisting of compound (20–60 μM in ITC buffer). All titrations were conducted using an initial control injection of 0.2 μL followed by 13 identical injections (~3 μL per injection) with a duration of 2 s (per injection) and a spacing of 150 s between injections. The ratio of protein/compound was optimized to ensure complete saturation of the titrant before the final injection to ensure proper baseline determination. Data were corrected for dilution and analyzed using the MicroCal Origin software to determine the enthalpies of binding (ΔH) and binding constants as described. Thermodynamic parameters were calculated using the basic equation of thermodynamics (ΔG = ΔH − TΔS = −RTlnKB) where ΔG, ΔH and ΔS are the changes in free energy, enthalpy and entropy of binding, respectively. A single binding site model was used for all ligand-protein interactions.

Assay [7] addresses T7, BRD7 (Homo sapiens, UniProt Q9NPI1).
T7 construct: purchased Eurofins DiscoverX (BROMOscan)
Nature of the assay: BromoScan profiling (DiscoverX). It counts as binding. The conditions noted are these: read-out: Percent Control BRD7.

Assay [8] deals with T8, BRDT(1) (Homo sapiens, UniProt Q58F21).
T8 construct: BRDT(1); purchased Eurofins DiscoverX (BROMOscan)
The assay can be described thus: BromoScan profiling (DiscoverX). The format is binding. As to conditions: read-out: Percent Control BRDT(1).

In assay [9] the test system is TRIM33(PHD,Bromo.). Nature of the assay: BromoScan profiling (DiscoverX). The format is binding, human. As to conditions: 1 µM.
In assay [10] the target is T9, EP300 bromodomain (Homo sapiens, UniProt Q09472).
T9 construct: 6xHis (cleaved yes); host or cells: E. coli BL21 (DE3) RIL
T9 sequence (Q09472 1048-1161): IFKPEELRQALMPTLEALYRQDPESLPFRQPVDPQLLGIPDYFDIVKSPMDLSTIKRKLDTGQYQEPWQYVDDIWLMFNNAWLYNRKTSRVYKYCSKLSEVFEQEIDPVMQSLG
The assay can be described thus: Differential scanning fluorimetry (DSF) thermal shift. The format is binding. The gist of the method:
(§1)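 Thermal shift of 5 μM E. coli-expressed bromodomain with 100 μM compound in 50 mM HEPES pH 7.5, 150 mM NaCl, 2 mM DTT, 2% DMSO, 5X SYPRO Orange, quadruplicate. Heated 25→95 °C at 1 °C/min, fluorescence at 610 nm; ΔTm relative to DMSO reference wells.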

For assay [11], the target named is T6, BRD4-BD1 (BRD4-1). The description is as above. It counts as binding. The gist of the method: as §1
Assay [12] concerns the target T10, BAZ2B (Homo sapiens, UniProt Q9UIF8).
T10 construct: purchased Eurofins DiscoverX (BROMOscan)
The assay can be described thus: BromoScan profiling (DiscoverX). The format is binding. As to conditions: read-out: Percent Control BAZ2B.

Assay [13] deals with T11, TAF1(2) (Homo sapiens, UniProt P21675).
T11 construct: TAF1(2); purchased Eurofins DiscoverX (BROMOscan)
The assay can be described thus: BromoScan profiling (DiscoverX). The format is binding. As to conditions: read-out: Percent Control TAF1(2).

In assay [14] the target is T12, TAF1L(2) (Homo sapiens, UniProt Q8IZX4).
T12 construct: TAF1L(2); purchased Eurofins DiscoverX (BROMOscan)
Nature of the assay: BromoScan profiling (DiscoverX). It counts as binding. As to conditions: read-out: Percent Control TAF1L(2).

Assay [15] has as its target T13, BRPF1 (Homo sapiens, UniProt P55201).
T13 construct: purchased Eurofins DiscoverX (BROMOscan)
Nature of the assay: BromoScan profiling (DiscoverX). It counts as binding. As to conditions: read-out: Percent Control BRPF1.

The target of assay [16] is T14, BRD4(1) (Homo sapiens, UniProt O60885).
T14 construct: BRD4(1); purchased Eurofins DiscoverX (BROMOscan)
The assay can be described thus: BromoScan profiling (DiscoverX). It counts as binding. The conditions noted are these: read-out: Percent Control BRD4(1).

[17] abbreviates: DSF, 5 μM protein, 100 μM compound, three independent experiments, average ± SD.

T7 sequence (Q9NPI1 whole entry): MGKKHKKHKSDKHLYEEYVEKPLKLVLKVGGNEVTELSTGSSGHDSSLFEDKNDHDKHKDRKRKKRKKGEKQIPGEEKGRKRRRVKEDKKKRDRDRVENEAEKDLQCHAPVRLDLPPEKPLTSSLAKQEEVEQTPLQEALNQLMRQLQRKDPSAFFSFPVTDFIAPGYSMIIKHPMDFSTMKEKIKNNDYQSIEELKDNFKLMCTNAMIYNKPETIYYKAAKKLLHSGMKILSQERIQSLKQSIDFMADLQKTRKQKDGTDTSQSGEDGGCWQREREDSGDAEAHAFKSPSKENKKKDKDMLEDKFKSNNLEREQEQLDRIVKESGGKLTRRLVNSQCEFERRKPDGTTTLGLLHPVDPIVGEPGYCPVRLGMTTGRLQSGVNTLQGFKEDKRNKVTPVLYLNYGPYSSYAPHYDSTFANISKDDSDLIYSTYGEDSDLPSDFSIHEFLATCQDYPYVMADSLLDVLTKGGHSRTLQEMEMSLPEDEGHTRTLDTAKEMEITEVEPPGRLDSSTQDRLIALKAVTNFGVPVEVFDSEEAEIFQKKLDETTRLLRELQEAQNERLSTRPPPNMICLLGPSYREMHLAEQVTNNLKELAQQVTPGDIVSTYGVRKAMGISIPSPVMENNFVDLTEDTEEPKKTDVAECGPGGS
T5 sequence (Q92831 whole entry): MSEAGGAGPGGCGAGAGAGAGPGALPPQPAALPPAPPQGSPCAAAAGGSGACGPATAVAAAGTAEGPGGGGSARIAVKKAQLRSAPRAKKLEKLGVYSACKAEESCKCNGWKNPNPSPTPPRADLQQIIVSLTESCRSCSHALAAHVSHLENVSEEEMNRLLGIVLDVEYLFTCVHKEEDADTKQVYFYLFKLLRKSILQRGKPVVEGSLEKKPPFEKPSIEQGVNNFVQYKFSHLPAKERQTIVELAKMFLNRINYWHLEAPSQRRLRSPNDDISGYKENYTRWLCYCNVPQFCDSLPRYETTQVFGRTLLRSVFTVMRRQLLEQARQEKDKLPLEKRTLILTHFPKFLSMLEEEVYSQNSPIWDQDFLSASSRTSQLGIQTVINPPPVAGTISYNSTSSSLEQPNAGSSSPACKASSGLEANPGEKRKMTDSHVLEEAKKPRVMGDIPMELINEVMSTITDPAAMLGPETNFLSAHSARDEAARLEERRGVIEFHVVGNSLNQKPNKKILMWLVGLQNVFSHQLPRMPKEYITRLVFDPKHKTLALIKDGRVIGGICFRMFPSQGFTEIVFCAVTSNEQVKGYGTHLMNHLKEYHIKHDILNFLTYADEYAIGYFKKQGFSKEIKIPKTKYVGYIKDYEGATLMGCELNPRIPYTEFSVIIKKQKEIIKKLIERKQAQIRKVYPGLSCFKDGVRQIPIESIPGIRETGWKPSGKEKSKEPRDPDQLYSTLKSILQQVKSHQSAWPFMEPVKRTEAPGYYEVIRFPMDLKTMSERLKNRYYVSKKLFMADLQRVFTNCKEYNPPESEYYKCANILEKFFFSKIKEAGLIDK
T4 sequence (Q86U86 178-291 limits assumed): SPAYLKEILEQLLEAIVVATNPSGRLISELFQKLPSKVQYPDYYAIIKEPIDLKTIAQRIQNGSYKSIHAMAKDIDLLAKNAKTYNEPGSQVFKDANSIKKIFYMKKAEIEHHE
T12 sequence (Q8IZX4 1517-1654 limits assumed): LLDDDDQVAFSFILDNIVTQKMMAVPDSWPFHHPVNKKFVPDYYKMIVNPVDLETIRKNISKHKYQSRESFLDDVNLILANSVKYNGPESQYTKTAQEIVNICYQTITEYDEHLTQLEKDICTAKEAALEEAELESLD
T3 sequence (P25440 348-455 limits assumed): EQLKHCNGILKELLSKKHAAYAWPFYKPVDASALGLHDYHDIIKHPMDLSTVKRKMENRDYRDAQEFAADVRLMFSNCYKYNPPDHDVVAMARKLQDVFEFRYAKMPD
T2 sequence (P25440 71-194 limits assumed): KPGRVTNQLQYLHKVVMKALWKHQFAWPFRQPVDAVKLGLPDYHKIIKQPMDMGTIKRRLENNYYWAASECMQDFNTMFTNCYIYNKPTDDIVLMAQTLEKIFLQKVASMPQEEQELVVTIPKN
T11 sequence (P21675 1519-1656 limits assumed): as the sequence (Q8IZX4 1517-1654 limits assumed) above, with M46V, V51M, I102V, I107L counted along it
T13 sequence (P55201 whole entry): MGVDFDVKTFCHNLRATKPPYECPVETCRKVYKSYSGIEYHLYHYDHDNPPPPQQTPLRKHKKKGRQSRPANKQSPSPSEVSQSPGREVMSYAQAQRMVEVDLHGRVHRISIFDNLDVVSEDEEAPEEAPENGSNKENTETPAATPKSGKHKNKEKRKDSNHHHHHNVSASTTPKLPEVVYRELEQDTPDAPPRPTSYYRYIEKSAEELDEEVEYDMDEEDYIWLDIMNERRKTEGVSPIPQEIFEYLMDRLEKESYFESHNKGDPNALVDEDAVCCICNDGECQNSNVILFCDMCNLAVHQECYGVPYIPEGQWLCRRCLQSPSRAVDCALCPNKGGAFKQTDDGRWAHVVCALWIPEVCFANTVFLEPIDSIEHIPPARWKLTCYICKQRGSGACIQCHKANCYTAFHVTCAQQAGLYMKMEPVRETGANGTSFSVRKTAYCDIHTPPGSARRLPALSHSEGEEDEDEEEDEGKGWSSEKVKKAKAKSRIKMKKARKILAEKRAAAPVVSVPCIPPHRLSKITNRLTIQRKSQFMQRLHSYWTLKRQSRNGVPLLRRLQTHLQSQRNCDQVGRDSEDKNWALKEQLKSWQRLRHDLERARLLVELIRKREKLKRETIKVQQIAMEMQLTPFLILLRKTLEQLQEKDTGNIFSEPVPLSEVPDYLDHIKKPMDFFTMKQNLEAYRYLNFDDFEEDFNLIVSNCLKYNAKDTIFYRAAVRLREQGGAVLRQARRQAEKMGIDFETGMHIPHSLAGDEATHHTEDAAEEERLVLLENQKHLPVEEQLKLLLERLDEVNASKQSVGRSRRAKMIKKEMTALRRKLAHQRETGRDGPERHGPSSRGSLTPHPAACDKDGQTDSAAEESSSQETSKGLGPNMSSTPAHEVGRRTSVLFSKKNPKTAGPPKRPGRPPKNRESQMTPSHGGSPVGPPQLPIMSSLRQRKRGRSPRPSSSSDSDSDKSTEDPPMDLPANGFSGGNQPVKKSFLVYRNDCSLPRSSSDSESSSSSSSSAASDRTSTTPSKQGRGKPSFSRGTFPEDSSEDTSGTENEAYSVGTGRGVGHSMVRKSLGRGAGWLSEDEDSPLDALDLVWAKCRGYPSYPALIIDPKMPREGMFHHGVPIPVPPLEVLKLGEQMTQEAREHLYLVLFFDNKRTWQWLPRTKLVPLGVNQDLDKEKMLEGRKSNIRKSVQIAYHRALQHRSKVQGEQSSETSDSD
T1 sequence (Q9ULD4 whole entry): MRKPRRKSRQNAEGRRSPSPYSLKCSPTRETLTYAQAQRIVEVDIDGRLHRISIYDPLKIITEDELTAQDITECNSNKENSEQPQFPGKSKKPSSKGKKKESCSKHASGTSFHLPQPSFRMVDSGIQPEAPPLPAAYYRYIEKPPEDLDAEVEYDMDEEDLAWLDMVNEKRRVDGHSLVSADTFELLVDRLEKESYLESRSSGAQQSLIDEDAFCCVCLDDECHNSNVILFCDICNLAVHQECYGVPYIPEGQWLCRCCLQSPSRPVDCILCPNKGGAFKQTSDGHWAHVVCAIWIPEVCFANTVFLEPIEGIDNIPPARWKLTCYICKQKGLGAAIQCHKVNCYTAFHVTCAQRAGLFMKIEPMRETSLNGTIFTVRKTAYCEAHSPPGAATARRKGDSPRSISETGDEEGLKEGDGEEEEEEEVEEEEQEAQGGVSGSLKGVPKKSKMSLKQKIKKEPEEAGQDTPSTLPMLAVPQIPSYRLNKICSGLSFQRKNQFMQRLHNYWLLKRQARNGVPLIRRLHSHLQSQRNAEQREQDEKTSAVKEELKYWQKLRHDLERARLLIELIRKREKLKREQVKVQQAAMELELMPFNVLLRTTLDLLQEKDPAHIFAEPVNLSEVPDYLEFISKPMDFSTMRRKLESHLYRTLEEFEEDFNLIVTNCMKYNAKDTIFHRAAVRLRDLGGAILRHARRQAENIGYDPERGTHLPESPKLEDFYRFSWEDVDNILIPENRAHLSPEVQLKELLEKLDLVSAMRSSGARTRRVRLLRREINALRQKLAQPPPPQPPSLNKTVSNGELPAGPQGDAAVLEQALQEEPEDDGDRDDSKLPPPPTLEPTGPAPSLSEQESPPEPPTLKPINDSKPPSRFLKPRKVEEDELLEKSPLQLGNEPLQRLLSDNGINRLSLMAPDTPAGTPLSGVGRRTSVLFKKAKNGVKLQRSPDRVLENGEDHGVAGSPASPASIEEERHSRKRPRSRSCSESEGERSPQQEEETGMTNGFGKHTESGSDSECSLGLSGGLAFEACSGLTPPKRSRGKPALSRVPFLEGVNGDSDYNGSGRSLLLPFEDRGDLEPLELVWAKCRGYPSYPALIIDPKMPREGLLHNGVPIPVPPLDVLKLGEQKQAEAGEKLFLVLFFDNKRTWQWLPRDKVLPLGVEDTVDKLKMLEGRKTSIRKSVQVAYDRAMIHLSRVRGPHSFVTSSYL

Regarding `CO[C@H]1CC[C@H](n2c([C@@H]3CCCC(=O)N3c3ccc(F)c(F)c3)nc3cc(-c4c(C)noc4C)ccc32)CC1` [CCS1477], the remaining binding at 1 µM in [1] was 75%; in assay [2], 3.5%; in [3] it was 57%; in [4], 78%; in assay [5] it was 88%; in assay [7], 64%. The remaining binding at 1 µM stood at 14% in [8]; 82% in assay [12]; 69% in assay [13]; 80% in assay [14]; 31% in assay [15]; 3.3% in [16]. In assay [6], this molecule displayed a Kd of 403 ± 137 nM. Also, the “Percent Control TRIM33(PHD,Bromo.)” value in assay [9] came out at 90. Moreover, the “ΔTm (°C)” value stood at 18.3 °C in assay [10] (DSF thermal shift vs DMSO, EP300 bromodomain, Fig 2B) and 6.7 °C in [11] (DSF thermal shift vs DMSO, BRD4-BD1, Fig 2B). The “∆Tm (°C) EP300” value in [10] (setting [17]) came out at 18.3 ± 0.2 °C. In assay [10] (Figure 3B, DSF, EP300), the “ΔTm (°C) EP300” value came to 18.3 °C. In [11] (setting [17]), the “∆Tm (°C) BRD4-1” value is 6.7 ± 0.16 °C and 6.7 °C.
